ChEMBL document CHEMBL1139511, “AFMoC enhances predictivity of 3D QSAR: a case study with DOXP-reductoisomerase” (J Med Chem, 2005)

biological target: T1, 1-deoxy-D-xylulose 5-phosphate reductoisomerase (Escherichia coli K-12, UniProt P45568); assay: Inhibitory concentration against DOXP reductoisomerase
T1 sequence (P45568 whole entry): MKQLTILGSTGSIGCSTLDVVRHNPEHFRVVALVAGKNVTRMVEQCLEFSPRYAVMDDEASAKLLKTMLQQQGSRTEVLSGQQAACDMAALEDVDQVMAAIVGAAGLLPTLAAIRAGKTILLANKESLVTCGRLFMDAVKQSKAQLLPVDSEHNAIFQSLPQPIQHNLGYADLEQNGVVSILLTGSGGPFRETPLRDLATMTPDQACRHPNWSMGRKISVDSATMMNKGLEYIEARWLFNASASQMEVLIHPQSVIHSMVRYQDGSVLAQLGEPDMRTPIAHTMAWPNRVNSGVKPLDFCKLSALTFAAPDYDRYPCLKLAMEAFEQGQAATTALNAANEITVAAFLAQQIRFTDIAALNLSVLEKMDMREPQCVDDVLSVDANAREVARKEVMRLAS

Row | IC50 [µM] | SMILES
1 | 1.82 | O=C(CN(Cc1ccccc1)CP(=O)(O)O)NO
2 | 1.7 | CCCCCCCC(=O)N(O)CCCP(=O)(O)O
3 | 11 | CC(C)(C)C(=O)N(O)CCCP(=O)(O)O
4 | 40.7 | NCCCCCC(=O)N(O)CCCP(=O)(O)O
5 | 50.1 | CC(O)CC(=O)N(O)CCCP(=O)(O)O (stereo unspecified)
6 | 2.4 | O=C(c1ccc(-c2ccccc2)cc1)N(O)CCCP(=O)(O)O
7 | 14.1 | COc1ccc(CC(=O)NCC(=O)N(O)CCCP(=O)(O)O)cc1OC
8 | 5.13 | O=C(NCC(=O)N(O)CCCP(=O)(O)O)c1ccc(OC(F)(F)F)cc1
9 | 25.7 | NCCCC(=O)N(O)CCCP(=O)(O)O
10 | 1 | O=C(CCCOc1ccccc1)NCC(=O)N(O)CCCP(=O)(O)O
11 | 7.08 | O=C(NCC(=O)N(O)CCCP(=O)(O)O)C1CC1
12 | 14.1 | O=C(N(O)CCCP(=O)(O)O)C(F)(F)F
13 | 100 | COC(=O)c1ccccc1C(=O)N(O)CCCP(=O)(O)O
14 | 15.8 | CCOC(=O)C(=O)N(O)C1CCC(P(=O)(O)O)C1 (stereo unspecified)
15 | 20 | CCC(C(=O)NCC(=O)N(O)CCCP(=O)(O)O)c1ccccc1 (stereo unspecified)
16 | 17 | O=C(CCCc1c[nH]c2ccccc12)NCC(=O)N(O)CCCP(=O)(O)O
17 | 0.229 | O=C(c1cccc2ccccc12)N(O)CCCP(=O)(O)O
18 | 6.61 | CCCC(CCN(O)C(C)=O)P(=O)(O)O (stereo unspecified)
19 | 50.1 | O=C(c1ccccc1O)N(O)C1CCC(P(=O)(O)O)C1 (stereo unspecified)
20 | 24 | CC(C)CC(=O)N(O)CCCP(=O)(O)O
21 | 1.82 | O=C(c1ccccc1O)N(O)CCCP(=O)(O)O
22 | 50.1 | O=C(CCc1ccccc1)N(O)CCCP(=O)(O)O
23 | 6.46 | O=CN(O)CC(Cc1ccccc1)CP(=O)(O)O (stereo unspecified)
24 | 0.1 | O=C(c1ccccc1)N(O)CCCP(=O)(O)O

Row | SMILES | IC50 [µM]
25 | O=C(CCCP(=O)(O)O)NO | 0.257
26 | O=C(CNCP(=O)(O)O)NO | 16.2
27 | CN(CC(=O)NO)CP(=O)(O)O | 31.6
28 | CS(=O)(=O)N(O)CCCP(=O)(O)O | 38
29 | NC(CCP(=O)(O)O)C(=O)NO (stereo unspecified) | 9.77
30 | CC(=O)N(O)C1CCC(P(=O)(O)O)C1 (stereo unspecified) | 2.34
31 | CC(=O)N(O)C/C=C/P(=O)(O)O | 0.0646
32 | CC(=O)N(O)CC(C)CP(=O)(O)O (stereo unspecified) | 0.646
33 | CCCC(CCN(O)C=O)P(=O)(O)O (stereo unspecified) | 8.13
34 | CC(C)C(CCN(O)C=O)P(=O)(O)O (stereo unspecified) | 6.61
35 | CCC(CCN(O)C=O)P(=O)(O)O (stereo unspecified) | 1.78
36 | O=C(C1CC1)N(O)CCCP(=O)(O)O | 36.3
37 | CC(=O)N(O)CCC(C)P(=O)(O)O (stereo unspecified) | 0.0537
38 | NCCC(=O)N(O)CCCP(=O)(O)O | 15.8
39 | CCC(CCN(O)C(C)=O)P(=O)(O)O (stereo unspecified) | 0.708
40 | O=C(C(Cl)Cl)N(O)CCCP(=O)(O)O | 0.178
41 | CC(=O)N(O)CCCP(=O)(O)O [FR-900098] | 0.0282
